Key:
[1] = tested on: A-431; assay: Tested for antiproliferative activity against human A431 cells; type: functional, cell-based
[2] = tested on: A-431; assay: Inhibitory effect on phospho-Src (Tyr416) after EGF (100 uM) stimulation of A431 cells (38); settings: Homo sapiens
[3] = tested on: A-431; assay: Inhibitory effect on phospho-Src/nonphospho after EGF (100 uM) stimulation of A431 cells (21); settings: Homo sapiens
[4] = tested on: A-431; assay: cells; settings: Homo sapiens
Description: Inhibitory effect on nonphospho-Src after EGF (100 uM) stimulation of A431 cells (control=178)

Structure (SMILES) | IC50 [1] [µM] | also measured
CCCCNc1nc(SCC)nc2c1cnn2CC(Cl)c1ccccc1 (configuration not stated) | – | IC50 [2]: 53 µM; IC50 [3]: 33 µM
CC(C)(C)n1nc(-c2ccc(Cl)cc2)c2c(N)ncnc21 | – | IC50 [2]: 22 µM; IC50 [4]: 131 µM; IC50 [3]: 17 µM
CCSc1nc(NCc2ccccc2)c2cnn(CC(Cl)c3ccccc3)c2n1 (configuration not stated) | 124 | –
CSc1nc(NCc2ccccc2)c2cnn(CC(Cl)c3ccccc3)c2n1 (configuration not stated) | – | IC50 [2]: 32 µM; IC50 [3]: 21 µM
C(=C\n1ncc2c(N3CCCC3)ncnc21)/c1ccccc1 | 63 | –
CSc1nc(N2CCOCC2)c2cnn(CC(Cl)c3ccccc3)c2n1 (configuration not stated) | – | IC50 [2]: 34 µM; IC50 [3]: 24 µM
CCCNc1ncnc2c1cnn2/C=C/c1ccccc1 | 61 | –
C(=C\n1ncc2c(N3CCCCC3)ncnc21)/c1ccccc1 | 69 | –
CCCCNc1ncnc2c1cnn2/C=C/c1ccccc1 | 91 | –
CCSc1nc(N2CCCCC2)c2cnn(CC(Cl)c3ccccc3)c2n1 (configuration not stated) | 176 | –

More lines, main results first:

IC50 [1] [µM] | Structure (SMILES) | also measured
59 | C(=C\n1ncc2c(N3CCOCC3)ncnc21)/c1ccccc1 | –
36 | CSc1nc(N2CCOCC2)c2cnn(/C=C/c3ccccc3)c2n1 | –
40 | CSc1nc(NCc2ccccc2)c2cnn(/C=C/c3ccccc3)c2n1 | –
27 | CCCCNc1nc(SC)nc2c1cnn2CC(Cl)c1ccccc1 (configuration not stated) | –
50 | CCSc1nc(N2CCOCC2)c2cnn(/C=C/c3ccccc3)c2n1 | –
20 | COc1cc2ncnc(Nc3cccc(Cl)c3)c2cc1OC [TYRPHOSTIN AG-1478] | –
54 | CSc1nc(N2CCCCC2)c2cnn(/C=C/c3ccccc3)c2n1 | –
